{"source": "patent US20140301980A1", "about": "“METHODS FOR THE TREATMENT OF PSORIATIC ARTHRITIS USING APREMILAST” (CELGENE CORPORATION, priority 2013, published 2014)", "key": {"[1]": {"tested_on": "adult patients with active PsA", "assay": "Phase III clinical studies PALACE 1-3, study not specified", "assay_type": "in vivo, human", "protocol": "(§1) The safety and efficacy of apremilast was evaluated in three multi-center, randomized, double-blind, placebo-controlled trials (Studies PALACE 1, PALACE 2, and PALACE 3) of similar design. A total of 1493 adult patients with active PsA (≧3 swollen joints and ≧3 tender joints) despite prior or current treatment with disease-modifying antirheumatic drug (DMARD) therapy were randomized. […] One qualifying psoriatic skin lesion of at least 2 cm in diameter was required in PALACE 3. Previous treatment with a biologic, including TNF-blockers was allowed.\n(§2) Across the 3 studies, patients were randomly assigned to placebo (n=496), apremilast 20 mg (n=500), or apremilast 30 mg (n=497) given orally twice daily. Patients were allowed to receive stable doses of concomitant methotrexate (MTX) (≦25 mg/week), sulfasalazine (SSZ) (≦2 g/day), leflunomide (LEF) (≦20 mg/day), low dose oral corticosteroids (equivalent to ≦10 mg of prednisone a day), and/or nonsteroidal anti-inflammatory drugs (NSAIDs) during the trial. Treatment assignments were stratified based on small-molecule DMARD use at baseline. The patients who were therapeutic failures of >3 agents for PsA (small molecules or biologics), or >1 biologic TNF blocker were excluded.\n(§3) The primary endpoint was the percentage of patients achieving American College of Rheumatology (ACR) 20 response at Week 16. Placebo-controlled efficacy data were collected and analyzed through Week 24. Patients with each subtype of PsA were enrolled across the 3 studies, including symmetric polyarthritis (62.0%), asymmetric oligoarthritis (26.9%), distal interphalangeal (DIP) joint arthritis (6.2%), arthritis mutilans (2.7%), and predominant spondylitis (2.1%). The median duration of PsA disease was 5 years. Patients received concomitant therapy with at least one DMARD (65.2%), MTX (54.5%), SSZ (9.0%), LEF (7.4%), low dose oral corticosteroids (13.9%), and NSAIDs (70.7%). Prior treatment with small-molecule DMARDs only was reported in 76.4% of patients and prior treatment with biologic DMARDs was reported in 22.4% of patients."}, "[2]": {"tested_on": "patients with psoriatic arthritis (PsA)", "assay": "Phase II randomized, double-blind, placebo controlled, multicenter clinical study in psoriatic arthritis", "details": "for Subjects reporting a serious AE (SAE): 12 week study period", "procedure": "A phase II, randomized, double-blind, placebo controlled, multicenter clinical study was performed in North America and Europe in patients with psoriatic arthritis (PsA). […] Mean duration of PsA was 7.8 years; mean tender joint count of 22, mean swollen joint count of 10 at baseline (Moll & Wright criteria). […] Stable doses of NSAIDs, corticosteroids (≦10 mg/day prednisone or equivalent), and methotrexate were allowed."}, "[3]": {"tested_on": "adult patients with active PsA", "assay": "Phase III clinical study PALACE 3 in active psoriatic arthritis (PASI-75)", "assay_type": "in vivo, human", "details": "patients with psoriatic involvement of at least three percent BSA", "protocol": "as §1\nas §2, with “Treatment assignments were stratified based on small-molecule DMARD use at baseline. The patients who were therapeutic failures of >3 agents for PsA (small molecules or biologics), or >1 biologic TNF blocker were excluded.” left out\nThe primary endpoint was the percentage of patients achieving American College of Rheumatology (ACR) 20 response at Week 16. Placebo-controlled efficacy data were collected and analyzed through Week 24. […]\nPatients with psoriatic involvement of at least three percent body surface area (BSA) were evaluated for Psoriatic Area and Severity Index (PASI)-75 responses. […]"}, "[4]": {"tested_on": "adult patients with active PsA", "assay": "Phase III clinical study PALACE 1 in active psoriatic arthritis", "assay_type": "in vivo, human", "details": "for Patients achieving remission, DAS28(CRP) less than 2.6: N=168; for Physician's global assessment of disease activity, % Change (percent improvement) / Subject's assessment of pain, % Change (percent improvement) / Subject's global assessment of disease activity, % Change (percent improvement): VAS; for Number of swollen joints, % Change (percent improvement): scale 0-76; for Number of tender joints, % Change (percent improvement): scale 0-78; for Proportion of patients with ACR 20 response / Proportion of patients with ACR 50 response / Proportion of patients with ACR 70 response: N = 168", "protocol": "as §1, §2, §3"}}}
{"molecule": "CCOc1cc([C@@H](CS(C)(=O)=O)N2C(=O)c3cccc(NC(C)=O)c3C2=O)ccc1OC", "note": "[apremilast, (+)-2-[1-(3-ethoxy-4-methoxyphenyl)-2-methylsulfonylethyl]-4-acetylaminoisoindoline-1,3-dione]", "values": [{"measurement": "Mental Component Summary score (MCS), mean change from baseline", "setting": "[1]; human, in vivo", "value": "No worsening"}, {"measurement": "SF-36v2 physical functioning domain and physical component summary score, change from baseline compared to placebo", "setting": "[1]; human, in vivo", "value": "greater improvement"}, {"measurement": "Dactylitis and enthesitis", "setting": "[1]; patients with pre-existing dactylitis or enthesitis", "value": "improvement"}, {"measurement": "Discontinuations due to AEs", "setting": "[2]; 20 mg BID", "value": 9, "unit": "%"}, {"measurement": "Discontinuations due to lack of efficacy", "setting": "[2]; 20 mg BID", "value": 7, "unit": "%"}, {"measurement": "Subjects reporting a serious AE (SAE)", "setting": "[2]; 20 mg BID", "value": 4, "unit": "subjects"}, {"measurement": "Primary endpoint, ACR20 at 12 weeks", "setting": "[2]; 20 mg BID", "value": "met"}, {"measurement": "ACR20 at 24 weeks", "setting": "[2]; 20 mg BID, evaluable subjects, 24 weeks", "value": 40, "unit": "%"}, {"measurement": "Discontinuations due to AEs", "setting": "[2]; 40 mg QD", "value": 6, "unit": "%"}, {"measurement": "Discontinuations due to lack of efficacy", "setting": "[2]; 40 mg QD", "value": 0, "unit": "%"}, {"measurement": "Subjects reporting a serious AE (SAE)", "setting": "[2]; 40 mg QD", "value": 0, "unit": "subjects"}, {"measurement": "Primary endpoint, ACR20 at 12 weeks", "setting": "[2]; 40 mg QD", "value": "met"}, {"measurement": "ACR20 at 24 weeks", "setting": "[2]; 40 mg QD, evaluable subjects, 24 weeks", "value": 39.1, "unit": "%"}, {"measurement": "Subjects reporting an SAE in the extension", "setting": "[2]; active-drug extension, weeks 12-24", "value": 7, "unit": "subjects"}, {"measurement": "ACR20 at 24 weeks", "setting": "[2]; placebo subjects switched to 20 mg BID in the extension", "value": 35, "unit": "%"}, {"measurement": "ACR20 at 24 weeks", "setting": "[2]; placebo subjects switched to 40 mg QD in the extension", "value": 40, "unit": "%"}, {"measurement": "Deaths", "setting": "[2]; whole study", "value": "no deaths"}, {"measurement": "Proportion of patients achieving PASI-75", "setting": "[3]; Week 16, 30 BID", "value": 22.2, "unit": "%"}, {"measurement": "Proportion of patients achieving PASI-75", "setting": "[3]; Week 24, 30 BID", "value": 25.6, "unit": "%"}, {"measurement": "Proportion of HAQ-DI responders (≧0.3 change from baseline) compared to placebo", "setting": "[4]; Week 16", "value": "greater proportion"}, {"measurement": "Patients achieving remission, DAS28(CRP) less than 2.6", "setting": "[4]; Week 16, 30 mg BID with or without DMARDs", "value": 13.1, "unit": "%"}, {"measurement": "CRP, % Change (percent improvement)", "setting": "[4]; Week 16, 30 mg BID ± DMARDs", "value": 12.40, "unit": "%"}, {"measurement": "HAQ-DI score, % Change (percent improvement)", "setting": "[4]; Week 16, 30 mg BID ± DMARDs", "value": 20.00, "unit": "%"}, {"measurement": "Physician's global assessment of disease activity, % Change (percent improvement)", "setting": "[4]; Week 16, 30 mg BID ± DMARDs", "value": 42.31, "unit": "%"}, {"measurement": "Subject's assessment of pain, % Change (percent improvement)", "setting": "[4]; Week 16, 30 mg BID ± DMARDs", "value": 26.00, "unit": "%"}, {"measurement": "Subject's global assessment of disease activity, % Change (percent improvement)", "setting": "[4]; Week 16, 30 mg BID ± DMARDs", "value": 20.29, "unit": "%"}, {"measurement": "Number of swollen joints, % Change (percent improvement)", "setting": "[4]; Week 16, 30 mg BID ± DMARDs", "value": 50.00, "unit": "%"}, {"measurement": "Number of tender joints, % Change (percent improvement)", "setting": "[4]; Week 16, 30 mg BID ± DMARDs", "value": 43.17, "unit": "%"}, {"measurement": "ACR 20 response rate", "setting": "[4]; Week 16, apremilast alone (29/62 patients)", "value": 46.8, "unit": "%"}, {"measurement": "ACR 20 response rate", "setting": "[4]; Week 16, biologic-naive patients, concomitant with DMARD (51/124 patients)", "value": 41.1, "unit": "%"}, {"measurement": "ACR 20 response rate", "setting": "[4]; Week 16, concomitant with DMARD (35/106 patients)", "value": 33.0, "unit": "%"}, {"measurement": "ACR 20 response rate", "setting": "[4]; Week 16, previously treated with small molecule and/or biologic DMARD (11/41 patients)", "value": 26.8, "unit": "%"}, {"measurement": "Proportion of patients with ACR 20 response", "setting": "[4]; Week 16, ± DMARDs", "value": 38.1, "unit": "%"}, {"measurement": "Proportion of patients with ACR 50 response", "setting": "[4]; Week 16, ± DMARDs", "value": 16.1, "unit": "%"}, {"measurement": "Proportion of patients with ACR 70 response", "setting": "[4]; Week 16, ± DMARDs", "value": 4.2, "unit": "%"}, {"measurement": "ACR 20 response rate", "setting": "[4]; Week 24, 30 mg BID for up to 24 weeks, independent of response at Week 16", "value": 43.5, "unit": "%"}, {"measurement": "Patients achieving remission, DAS28(CRP) less than 2.6", "setting": "[4]; Week 24, 30 mg BID with or without DMARDs", "value": 19.0, "unit": "%"}, {"measurement": "CRP, % Change (percent improvement)", "setting": "[4]; Week 24, 30 mg BID ± DMARDs", "value": 8.45, "unit": "%"}, {"measurement": "HAQ-DI score, % Change (percent improvement)", "setting": "[4]; Week 24, 30 mg BID ± DMARDs", "value": 20.00, "unit": "%"}, {"measurement": "Physician's global assessment of disease activity, % Change (percent improvement)", "setting": "[4]; Week 24, 30 mg BID ± DMARDs", "value": 35.90, "unit": "%"}, {"measurement": "Subject's assessment of pain, % Change (percent improvement)", "setting": "[4]; Week 24, 30 mg BID ± DMARDs", "value": 27.67, "unit": "%"}, {"measurement": "Subject's global assessment of disease activity, % Change (percent improvement)", "setting": "[4]; Week 24, 30 mg BID ± DMARDs", "value": 23.92, "unit": "%"}, {"measurement": "Number of swollen joints, % Change (percent improvement)", "setting": "[4]; Week 24, 30 mg BID ± DMARDs", "value": 50.00, "unit": "%"}, {"measurement": "Number of tender joints, % Change (percent improvement)", "setting": "[4]; Week 24, 30 mg BID ± DMARDs", "value": 44.83, "unit": "%"}, {"measurement": "Proportion of patients with ACR 20 response", "setting": "[4]; Week 24, ± DMARDs", "value": 35.1, "unit": "%"}, {"measurement": "Proportion of patients with ACR 50 response", "setting": "[4]; Week 24, ± DMARDs", "value": 19.0, "unit": "%"}, {"measurement": "Proportion of patients with ACR 70 response", "setting": "[4]; Week 24, ± DMARDs", "value": 10.1, "unit": "%"}, {"measurement": "Change in mean HAQ-DI score from baseline", "setting": "[4]; baseline to Week 16, p=0.0017 vs placebo", "value": "−0.244"}]}
